# Measurements taken from patent publication US8410284B2, “Cyclic benzimidazole derivatives useful as anti-diabetic agents” (Merck Sharp & Dohme Corp, priority 2008, dated 2013).
# Biological target: recombinant human AMPK complex 1 (containing α1β1γ1) (Homo sapiens, UniProt Q13131+Q9Y478)
# Experiment: In vitro AMPK activation assay (AMPKSAMSF)
# Assay type: biochemical
# Conditions: recombinant human AMPK complex 1 (α1β1γ1); for Emax: read-out: maximum AMP activation; for % Maximum AMP Activation of human AMPK Complex 1: basal activity subtracted
# Protocol: AMPKSAMSF (In Vitro AMPK Activation Assay)
# The recombinant human AMPK complex 1 (containing α1β1γ1) was obtained from baculovirus expression system. Recombinant viruses were generated by cotransfection of AMPK/pBacPak9 clones with Baculogold baculovirus DNA (Pharmingen) in spodoptera frugiperda 21 cells according to the manufacturer's instructions. Each round of virus amplification was performed for 5 days in Grace's medium containing 10% serum. Virus that had been subjected to three rounds of amplification was used for all protein production procedures. To express the AMPK complex, sf21 cells were adapted to serum free medium (SF900 II, Invitrogen) by sequential dilution from serum containing stocks into SF900 II medium and maintained in shaker flasks at 90 rpm at 27° C. The recombinant AMPK enzyme complex was produced by triple infection, one recombinant virus for each of the subunits, in sf21 cells under serum free conditions. Cells were infected in log phase, 1×10^6 cells/ml, at a multiplicity of infection of ˜5. Cells were harvested by centrifugation at 10,000×g for 15 minutes after 72 hours of infection with viruses. The insect cell pellet from 2 liters of culture was resuspended in 50 ml lysis buffer (20 mM Tris-HCl, 50 mM NaCl, 50 mM NaF, 30 mM Na PPi, 0.25 M sucrose, 10 mM ZnCl2, 2 mM DTT, 0.4 mg/ml digitonin) and subjected to two cycles of freeze-thaw lysis in a dry-ice ethanol bath. Insoluble material was removed by centrifugation at 10,000×g and the supernatant was fractionated with use of polyethylene glycol (PEG). The protein fraction precipitating between 2.5 and 6% PEG was used for further purification using a Blue-Sepharose step (Zhou et al, J. Clin. Invest. 108, 1167-1174, 2001).
# The total in vitro AMPK activation assay volume is 50 μl in a 96-well plate. The reaction mixture contained 100 μM ATP (0.5 μCi ^33P-ATP per reaction), and 50 μM SAMS (HMRSAMSGLHLVKRR) in a buffer (20 mM HEPES, pH 7.0, 5 mM MgCl2, 0.01% Brij35). The reaction was initiated with addition of the enzyme. After 30-minute incubation at 30° C., the reaction was stopped by addition of 80 μl 1% H3PO4. Aliquots (100 μl) were transferred to 96-well MultiScreen plates (MAPHNOB50; Millipore Corp., Bedford, Mass., USA). The plate was washed three times with 1% H3PO4 followed by detection in a Top-count. The counts per minute from the basal activity (the reaction without activator) was subtracted from each well and the data were expressed as % maximum AMP activation followed by EC50 calculation.
# Chain of recombinant human AMPK complex 1 (containing α1β1γ1) (Q13131 whole entry): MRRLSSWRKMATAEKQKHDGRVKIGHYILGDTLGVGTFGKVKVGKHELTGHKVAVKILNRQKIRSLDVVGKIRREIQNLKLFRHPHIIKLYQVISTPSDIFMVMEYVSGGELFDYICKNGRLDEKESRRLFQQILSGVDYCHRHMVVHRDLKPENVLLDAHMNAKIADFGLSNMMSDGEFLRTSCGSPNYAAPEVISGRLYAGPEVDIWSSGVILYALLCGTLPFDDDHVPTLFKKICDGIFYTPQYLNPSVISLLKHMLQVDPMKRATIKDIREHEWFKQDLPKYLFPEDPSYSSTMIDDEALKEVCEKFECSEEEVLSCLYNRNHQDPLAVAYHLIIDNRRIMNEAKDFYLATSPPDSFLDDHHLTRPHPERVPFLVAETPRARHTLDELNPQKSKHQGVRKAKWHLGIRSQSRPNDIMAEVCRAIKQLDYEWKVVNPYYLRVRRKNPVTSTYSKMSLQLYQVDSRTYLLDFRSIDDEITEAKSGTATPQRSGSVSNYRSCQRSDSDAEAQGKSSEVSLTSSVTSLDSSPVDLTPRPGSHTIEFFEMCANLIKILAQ
# Chain of recombinant human AMPK complex 1 (containing α1β1γ1) (Q9Y478 whole entry): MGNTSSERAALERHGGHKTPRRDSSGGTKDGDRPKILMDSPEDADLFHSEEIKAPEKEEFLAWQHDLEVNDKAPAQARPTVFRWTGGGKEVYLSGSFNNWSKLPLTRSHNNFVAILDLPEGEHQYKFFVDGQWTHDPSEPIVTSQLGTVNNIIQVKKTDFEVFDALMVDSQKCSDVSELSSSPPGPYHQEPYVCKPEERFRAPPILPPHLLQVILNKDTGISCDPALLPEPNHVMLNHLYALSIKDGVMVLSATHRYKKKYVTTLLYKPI
# Chain of recombinant human AMPK complex 1 (containing α1β1γ1) (P54619 whole entry partner): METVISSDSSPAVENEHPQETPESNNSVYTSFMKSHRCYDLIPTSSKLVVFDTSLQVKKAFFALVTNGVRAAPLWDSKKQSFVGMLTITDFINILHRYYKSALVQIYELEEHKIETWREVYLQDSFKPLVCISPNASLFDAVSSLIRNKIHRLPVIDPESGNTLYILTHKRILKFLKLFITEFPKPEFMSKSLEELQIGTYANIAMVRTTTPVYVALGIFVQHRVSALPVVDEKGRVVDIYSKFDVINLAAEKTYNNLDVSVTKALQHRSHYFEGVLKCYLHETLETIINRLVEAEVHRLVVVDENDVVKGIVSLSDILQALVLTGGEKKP
Compound,Emax,EC50,% Maximum AMP Activation of human AMPK Complex 1
"Cc1ccc(Oc2nc3cc(-c4ccc(-c5ccccc5)cc4)c(Cl)cc3[nH]2)cc1[P@@]1(=O)OCC[C@H](c2cccc(Cl)c2)O1 (relative stereo) [Example 19, Trans-5-Biphenyl-4-yl-6-chloro-2-[3-[4-(3-chloro-phenyl)-2-oxo-2-lambda*5*-[1,3,2]dioxaphosphinan-2-yl]-4-methyl-phenoxy]-1H-benzoimidazole]",> 80%,–,–
"Cc1ccc(Oc2nc3cc(-c4ccc(-c5ccccc5)cc4)c(Cl)cc3[nH]2)cc1[P@@]1(=O)OCC[C@@H](c2cccc(Cl)c2)O1 (relative stereo) [Example 20, Cis-5-Biphenyl-4-yl-6-chloro-2-[3-[4-(3-chloro-phenyl)-2-oxo-2-lambda*5*-[1,3,2]dioxaphosphinan-2-yl]4-methyl-phenoxy]-1H-benzoimidazole]",> 80%,–,–
"Cc1ccc(Oc2nc3cc(-c4ccc(-c5ccccc5)cc4)c(Cl)cc3[nH]2)cc1[P@@]1(=O)OCC[C@H](c2ccncc2)O1 (relative stereo) [Example 21, Trans-5-Biphenyl-4-yl-6-chloro-2-[4-methyl-3-(2-oxo-4-pyridin-4-yl-2lambda*5*-[1,3,2]dioxophosphinan-2-yl)-phenoxy]-1H-benzoimidazole]",> 80%,–,–
"Cc1ccc(Oc2nc3cc(-c4ccc(-c5ccccc5)cc4)c(Cl)cc3[nH]2)cc1[P@@]1(=O)OCC[C@@H](c2ccncc2)O1 (relative stereo) [Example 22, Cis-5-Biphenyl-4-yl-6-chloro-2-[4-methyl-3-(2-oxo-4-pyridin-4-yl-2lambda*5*-[1,3,2]dioxophosphinan-2-yl)-phenoxy]-1H-benzoimidazole]",> 80%,–,–
"O=[P@@]1(c2cccc(Oc3nc4cc(-c5ccc(-c6ccccc6)cc5)c(Cl)cc4[nH]3)c2)OCC[C@@H](c2cccc(Cl)c2)O1 (relative stereo) [Example 23, Trans-5-Biphenyl-4-yl-6-chloro-2-[3-4-(3-chloro-phenyl)-2-oxo-2-lambda*5*-[1,3,2]dioxaphosphinan-2-ylphenoxy]-1H-benzoimidazole]",> 80%,–,–
"Cc1ccc(Oc2nc3cc(-c4ccc(-c5ccccc5)cc4)c(Cl)cc3[nH]2)cc1P(=O)(O)O [Example 1, ((5-(4-Biphenyl)-6-chloro-1H-benzimidazol-2-yl)oxo)-4-methylphen-3-ylphosphonic acid]",> 80%,0.9 nM,175%
"Cc1ccc(Oc2nc3cc(C#Cc4ccccc4)c(Cl)cc3[nH]2)cc1P(=O)(O)O [Example 3, ((6-Chloro-5-phenylethynyl-1H-benzimidazol-2-yl)oxo)-4-methylphen-3-ylphosphonic acid]",> 80%,0.7 nM,192%
"Cc1ccc(Oc2nc3cc(-c4ccc(N5CCOCC5)cc4)c(Cl)cc3[nH]2)cc1P(=O)(O)O [Example 4, {5-[6-Chloro-5-(4-morpholin-4-yl-phenyl)-1H-benzoimidazol-2-yloxy]-2-methylphenyl}-phosphonic acid]",> 80%,–,–
"Cc1ccc(Oc2nc3cc(-c4ccc(C5CCCCC5)cc4)c(Cl)cc3[nH]2)cc1P(=O)(O)O [Example 5, {5-[6-Chloro-5-(4-cyclohexyl-phenyl)-1H-benzoimidazol-2-yloxy]-2-methylphenyl}phosphonic acid]",> 80%,4.9 nM,257%
"Cc1ccc(Oc2nc3cc(-c4ccc(N5CCCC5)cc4)c(Cl)cc3[nH]2)cc1P(=O)(O)O [Example 6, {5-[6-Chloro-5-(4-pyrrolidin-1-yl-phenyl)-1H-benzoimidazol-2-yloxy]-2-methyl-phenyl}phosphonic acid]",> 80%,1.1 nM,223%
"O=P(O)(O)c1cccc(Oc2nc3cc(-c4ccc(N5CCOCC5)cc4)c(Cl)cc3[nH]2)c1 [Example 7, {3-[6-Chloro-5-(4-morpholin-4-yl-phenyl)-1H-benzoimidazol-2-yloxy]phenyl}phosphonic acid]",> 80%,–,–
"Cc1ccc(Oc2nc3cc(-c4ccc(N5CCOCC5)cc4)c(Cl)cc3[nH]2)cc1P(=O)(O)O [Example 8, 5-(5-chloro-6-(4-morpholinophenyl)-1H-benzo[d]imidazol-2-yloxy)-2-methylphenylphosphonic acid]",–,1.2 nM,224%
"Cc1ccc(Oc2nc3cc(-c4ccc5c(ccn5C)c4)c(Cl)cc3[nH]2)cc1P(=O)(O)O [Example 9, 5-(5-chloro-6-(1-methyl-1H-indol-5-yl)-1H-benzo[d]imidazol-2-yloxy)-2-methylphenylphosphonic acid]",> 80%,–,–
"COc1ccc(C#Cc2cc3nc(Oc4ccc(C)c(P(=O)(O)O)c4)[nH]c3cc2Cl)cc1 [Example 10, 5-(5-chloro-6-(2-(4-methoxyphenyl)ethynyl)-1H-benzo[d]imidazol-2-yloxy)-2-methylphenylphosphonic acid]",> 80%,–,–
"O=P(O)(O)c1cncc(Oc2nc3cc(-c4ccc(-c5ccccc5)cc4)c(Cl)cc3[nH]2)c1 [Example 12, [5-(5-Biphenyl-4-yl-6-chloro-1H-benzoimidazol-2-yloxy)-pyridin-3-yl]-phoshponic acid]",> 80%,–,–
"O=P(O)(O)c1cccc(Oc2nc3cc(-c4ccc(-c5ccccc5)cc4)c(F)cc3[nH]2)c1 [Example 13, {3-[(5-biphenyl-4-yl-6-fluoro-1H-benzimidazol-2-yl)oxy]phenyl}phosphonic acid]",> 80%,–,–
"O=C(c1cccc(P(=O)(O)O)c1)c1nc2cc(-c3ccc(-c4ccccc4)cc3)c(Cl)cc2[nH]1 [Example 14, {3-[(5-biphenyl-4-yl-6-chloro-1H-benzimidazol-2-yl)carbonyl]phenyl}phosphonic acid]",> 80%,–,–
"O=P(O)(O)c1cccc(C(F)(F)c2nc3cc(-c4ccc(-c5ccccc5)cc4)c(Cl)cc3[nH]2)c1 [Example 15, {3-[(5-biphenyl-4-yl-6-chloro-1H-benzimidazol-2-yl)(difluoro)methyl]phenyl}phosphonic acid]",> 80%,–,–
"Cn1ccc2cc(-c3cc4nc(Oc5cccc(P(=O)(O)O)c5)[nH]c4cc3Cl)ccc21 [Example 16, (3-{[6-chloro-5-(1-methyl-1H-indol-5-yl)-1H-benzimidazol-2-yl]oxy}phenyl)phosphonic acid]",> 80%,0.6 nM,173%
"CCOP(C)(=O)c1cccc(Oc2nc3cc(-c4ccc(-c5ccccc5)cc4)c(Cl)cc3[nH]2)c1 (stereo not drawn) [Example 17, [3-(5 Biphenyl-4-yl-6-chloro-1H-benzoimidazol-2-yloxy)-phenyl]-methyl-phosphinic acid ethyl ester]",> 80%,–,–
"CP(=O)(O)c1cccc(Oc2nc3cc(-c4ccc(-c5ccccc5)cc4)c(Cl)cc3[nH]2)c1 [Example 18, [3-(5-Biphenyl-4-yl-6-chloro-1H-benzoimidazol-2-yloxy)-phenyl]-methyl-phosphinic acid]",> 80%,–,–
"O=P1(c2cccc(Oc3nc4cc(-c5ccc(-c6ccccc6)cc5)c(Cl)cc4[nH]3)c2)OCCC(c2cccc(Cl)c2)O1 (stereo not drawn) [Example 24, Cis-5-Biphenyl-4-yl-6-chloro-2-[3-4-(3-chloro-phenyl)-2-oxo-2-lambda*5*-[1,3,2]dioxaphosphinan-2-ylphenoxy]-1H-benzoimidazole]",> 80%,–,–
